This note sets out measurements from patent publication EP1401829B1, “NOVEL HETEROCYCLIC ANTIBACTERIAL COMPOUNDS” (Microbiotix, Inc., priority 2001, dated 2002).

One assay deals with MRSA 1094. In words: In vivo efficacy of Compound 70 in mouse models. To be noted: mice, 10^7 CFU/mouse + 5% Mucin, regimen 2 (t=0,2). Also on record: species or system Staphylococcus aureus. Here is the method: (§1) Swiss Webster mice, ca. 20 g each, were infected with Staphylococcus aureus (Smith strain) by the intraperitoneal route. Test compounds (2, 4, 5, 6, 7, 8, 10, 12) were dissolved in 10% dimethylsulfoxide in peanut oil to a concentration of 2 mg/ml. Vancomycin was used as positive control drug (i.e., protection from lethal infection). Fifteen minutes after infection, test compounds, vancomycin, or vehicle alone were given intraperitoneally to groups of five mice each. Animals were monitored for three days, and the number of mice surviving was tabulated for each treatment.
(§2) Using the same basic procedure as described above, the in vivo efficacy of Compound 70 was also evaluated at various doses in mice infected with S. aureaus (Smith), MRSA 1094, Enterococcus faecalis, or vancomycin-resistant Enterococcus faecalis strain VRE 700802. […] Negative controls were mice infected that received no treatment. Mucin was employed as an adjuvant to facilitate bacterial infection in mice, where indicated.

In the next assay the test system is VRE 700802. Briefly: In vivo efficacy of Compound 70 in mouse models. Also on record: species or system Enterococcus faecalis. As to conditions: mice, 3x10^8 CFU/mouse + 5% Mucin. How it is done: as §1, §2
For assay [1], the system named is enterococci or staphylococci strains, including MRSA and VRE strains. Briefly: In vivo efficacy of Compound 70 in mouse models, overall statement. As to conditions: mice; administration from distant parenteral sites (i.e., iv, sc, or im). Here is the method: as §2
Where [2] appears, read: dose 50 mg/kg, regimen 2 (t=0,2).
[3] abbreviates: dose 50 mg/kg, regimen 2 (t=0,3).
Where [4] appears, read: dose 75 mg/kg, regimen 2 (t=0,2-).
The mark [5] stands for this setting: dose 75 mg/kg, regimen 2 (t=0,3).
The mark [6] stands for this setting: dose 100 mg/kg, regimen 1 (t=0).

Marks after values point to notes of the source that are not given here.

In the case of `CCc1cc(Nc2cc(=O)n(CCCCN3CCN(c4c(F)cc5c(=O)c(C(=O)O)cn(C6CC6)c5c4F)CC3C)c(=O)[nH]2)ccc1C` (centres unmarked) [Compound 70, 3-{4-[1-(1-cyclopropyl-3-carboxy-4-oxo-6,8-difluoro-7-quinolyl)-3-methyl-4-piperazinyl]butyl}-6-(3-ethyl-4-methylanilino)uracil], the “% Survival at 72 hours” value in the assay on MRSA 1094 (dose 25 mg/kg) is on record as 0% (0/5); in the assay with MRSA 1094 (dose 50 mg/kg) it was 55% (11/20)*; in the assay on MRSA 1094 (dose 75 mg/kg) it was 80% (4/5); with VRE 700802 (setting [2]) it was 10% (1/10); in the assay with VRE 700802 (setting [3]), 0% (0/5); in the assay with VRE 700802 (setting [4]), 0% (0/5). In addition, the “% Survival at 72 hours” value is 40% (2/5) with VRE 700802 (setting [5]) and 0% (0/5) with VRE 700802 (setting [6]). Besides, the “Mean Survival Time” value with VRE 700802 (setting [2]) is listed as 45 h; in the assay with VRE 700802 (setting [3]), 35 h; in the assay on VRE 700802 (setting [4]), 50 h; in the assay with VRE 700802 (setting [5]), 50 h; with VRE 700802 (setting [6]) it was 34 h. The “activity against intra-peritoneal challenge” value in assay [1] was “dose-related activity”.
